One compound from patent US7648993B2, “Methods of treating disorders with Group I mGluR antagonists” (Brown University, priority 2001, dated 2010) can be followed below.

Holding throughout (assay type): cell-based, Long Evans rats
For assay [1], the system named is hippocampal area CA1 slices. The assay can be described thus: Field potential (FP) recordings in area CA1 of rat hippocampal slices (DHPG-LTD). The settings on record: for FP, % of pre-DHPG baseline (synaptic responses stabilized at a depressed level): after drug wash out. Here is the method:
(§1) All animals were used in accordance with procedures approved by the Brown University Institutional Animal Care and Use Committee. Hippocampal slices were prepared from postnatal day 21-30 (P21-30) Long Evans rats (Charles River, Cambridge, Mass.) and mGluR5 knockout mice (Lu et al. 1997) as described previously (Huber et al. 2000). For most experiments, CA3 was removed immediately after sectioning. Slices recovered for 1-2 h at room temperature (rats) or at 30° C. (mice) in artificial cerebrospinal fluid (ACSF) containing (in mM) 124 NaCl, 5 KCl, 1.25 NaH2PO4, 26 NaHCO3, 1 MgCl2, 2 CaCl2, and 10 dextrose, saturated with 95% O2-5% CO2. For recording, slices were placed in a submersion recording chamber and perfused with 30° C. ACSF at a rate of 2 ml/min.
Synaptically evoked field potentials (FPs) were recorded from area CA1 as described previously. Sharp microelectrode and whole cell voltage-clamp recordings were made using Axoclamp 2B and Axopatch 1D amplifiers (Axon Instruments), respectively. Sharp electrodes (80-120 M Ω) were filled with 3 M K-acetate and 10 mM KCl; patch pipettes (3-7 M Ω) were filled with (in mM) 134 K-gluconate, 6 KCl, 4 NaCl, 10 HEPES, 0.2 EGTA, 4 MgATP, 0.3 TrisGTP, and 14 phosphocreatine. The pH of the internal solution was adjusted to 7.25 with KOH, and the osmolarity was adjusted to 300 mOsm with H2O or sucrose. Only experiments in which there was less than a 15% change in series resistance were included in the analysis. Waveforms were filtered at 2 kHz and acquired and digitized at 10 kHz on a PC using Experimenter's Workbench (DataWave Systems, Boulder, Colo.).
Baseline responses were collected every 10-30 s using a stimulation intensity (10-30 μA; 0.2 ms) yielding 50-60% of the maximal response. Experiments in which there was a>5% drift in the response magnitude during the 20-min baseline period before DHPG or LFS were excluded from further analysis. All experiments with mGluR5 KO mice used wildtype littermates as controls and were performed blind to the genotype, later determined by Therion (Troy, N.Y.). LFS consisted of 900 pulses at 1 Hz. PP-LFS consisted of 900 pairs of stimuli (50-ms interstimulus interval) delivered at 1 Hz. In saturation experiments, stimulus duration was increased from 0.2 to 0.4 ms during PP-LFS.
The group data were analyzed as follows: 1) the initial slopes of the FPs and excitatory postsynaptic potentials (EPSPs), or the amplitude of the excitatory postsynaptic currents (EPSCs), for each experiment were expressed as percentages of the preconditioning or DHPG baseline average, 2) the time scale in each experiment was converted to time from the onset of conditioning or DHPG, and 3) the time-matched, normalized data were averaged across experiments and expressed in the text and figures as the means ±SE. Significant differences between groups were determined using an independent t-test or ANOVA performed on a 5-min average taken 1 h after LFS or DHPG application.
R,S-DHPG and D-2-amino-5-phosphonopentanoic acid (D-AP5) was purchased from Tocris (St. Louis, Mo.); all other chemicals were from Sigma Chemical (St Louis, Mo.). DHPG was prepared as a 100 times stock in H2O, aliquoted and stored at −20° C. Fresh stocks were made once a week. A 10 times stock of AP5 was prepared in ACSF and stored at 4° C. These stocks were diluted in ACSF to achieve their final concentrations. Picrotoxin was dissolved directly into ACSF immediately before use.

For assay [2], the system named is hippocampal area CA1 slices. The assay can be described thus: Sharp electrode EPSP and whole cell voltage-clamp EPSC recordings in hippocampal slices. The note with it: DHPG 50 μM, 5 min. Here is the method: as §1
Synaptically evoked field potentials (FPs) were recorded from area CA1 as described previously. […]
The group data were analyzed as follows: 1) the initial slopes of the FPs and excitatory postsynaptic potentials (EPSPs), or the amplitude of the excitatory postsynaptic currents (EPSCs), for each experiment were expressed as percentages of the preconditioning or DHPG baseline average, 2) the time scale in each experiment was converted to time from the onset of conditioning or DHPG, and 3) the time-matched, normalized data were averaged across experiments and expressed in the text and figures as the means ±SE. […]

The test system of assay [3] is CA1 neurons in hippocampal slices. Kind of assay: Synaptically evoked NMDAR-mediated EPSCs in CA1 neurons of hippocampal slices. The note with it: 5 min, 30 minutes after treatment, +40 mV. The procedure:
The loss of synaptic NR1 clusters clearly distinguishes the effect of DHPG from other treatments that selectively affect AMPARs^2,17-19.
Hippocampal slices were prepared from P21-30 Long Evans rats (Charles River, Cambridge, Mass.) as described previously^13,14. Slices recovered for 1-2 h at room temperature in artificial cerebrospinal fluid (ACSF) containing 124 mM NaCl, 5 mM KCl, 1.25 mM NaH2PO4, 26 mM NaHCO3, 1 mM MgCl2, 2 mM CaCl2, 10 mM dextrose, saturated with 95% O2, 5% CO2. For recording, slices were placed in a submersion recording chamber and perfused with 30° C. ACSF at a rate of 2 ml/min.
Synaptically evoked-NMDAR-mediated EPSCs were recorded from area CA1 as described previously for visual cortex^20. NMDA-evoked currents were examined by picospritzing 1 mM NMDA (made in ACSF), applied for 3.5-12.5 ms, near the proximal portion of the primary apical dendrite. NMDA-evoked currents were elicited once every two minutes. Stimulation intensity or picospritz pulse duration/pressure were adjusted to evoke an inward current with amplitude of 50 pA or greater.

The test system is the same in assay [4]. Kind of assay: NMDA-evoked currents in CA1 neurons of hippocampal slices. The settings on record: DHPG 100 μM, 5 min; 50-60 min after treatment. The procedure: As an additional test for an mGluR-induced loss of NMDAR function, we examined the effects of 100 μM DHPG (5 min) on currents evoked by NMDA applied near the proximal portion of the primary apical dendrite (FIG. 9B). Significant depression of NMDAR currents occurred (percent baseline at 50-60 min after DHPG treatment, DHPG, 61.1±12.0, n=7; control, 97.3±9.4; n=7; p<0.05); however, the time course of this change was much slower than that observed for synaptically evoked EPSCs. […] The early LTD of EPSCs could be accounted for by a presynaptic mechanism or by the rapid dispersal of synaptic NMDARs (without immediate internalization). […] Regardless of the early consequences, however, the parallel depression of NMDAR EPSCs and NMDA-evoked responses 60 minutes after DHPG treatment is consistent with an eventual reduction in surface NMDAR expression during mGluR-LTD.
Hippocampal slices were prepared from P21-30 Long Evans rats (Charles River, Cambridge, Mass.) as described previously^13,14. Slices recovered for 1-2 h at room temperature in artificial cerebrospinal fluid (ACSF) containing 124 mM NaCl, 5 mM KCl, 1.25 mM NaH2PO4, 26 mM NaHCO3, 1 mM MgCl2, 2 mM CaCl2, 10 mM dextrose, saturated with 95% O2, 5% CO2. […]
Synaptically evoked-NMDAR-mediated EPSCs were recorded from area CA1 as described previously for visual cortex^20. […]

Regarding `NC(C(=O)O)c1cc(O)cc(O)c1` (racemic) [DHPG, (RS)-3,5-dihydroxyphenylglycine], the “FP slope, % of pre-DHPG baseline after saturation of mGluR-dependent LTD” value in assay [1] (DHPG 50 μM applied after PP-LFS in D-AP5 50 μM) stood at 100±5%. Moreover, the “FP, % of pre-DHPG baseline (synaptic responses stabilized at a depressed level)” value is 69±5% in assay [1] (DHPG 50 μM, 5 min) and 48±1% in assay [1] (DHPG 100 μM, 5 min). Besides, the “DHPG-LTD, two-pathway experiment, unstimulated input” value in assay [1] (DHPG 50 μM, 5 min, input not stimulated during DHPG) amounted to 68±5%. In addition, the “DHPG-LTD, two-pathway experiment, stimulated input” value in assay [1] (DHPG 50 μM, 5 min, input stimulated during DHPG) is on record as 62±4%. In addition, in assay [1] (DHPG 50 μM, 5 min, no AP5), the “magnitude of DHPG-LTD, interleaved control slices without AP5” value was 85±3%. Also, in assay [1] (DHPG applied after repeated episodes of LFS), the “FP slope, % of pre-DHPG baseline after saturation of NMDAR-dependent LTD” value was 81±5%. For the same compound, the “EPSP slope after DHPG (LTD), % of baseline” value in assay [2] (sharp electrode recording) is recorded as 61±5%. Moreover, in assay [2] (whole cell voltage clamp at −70 mV), the “EPSC amplitude after DHPG (LTD), % of baseline” value came out at 69±5%. Further, the “NMDAR-EPSC amplitude as percent of baseline” value in assay [3] (DHPG 50 μM) is 70.7±2.9% of baseline; in assay [3] (DHPG 100 μM), 57.7±1.0% of baseline. Moreover, the “NMDA-evoked currents, percent baseline” value in assay [4] came out at 61.1±12.0 percent baseline.
